From patent US20040044008A1, “Use of therapeutic benzamide derivatives” (priority 2000, published 2004)

| SMILES | melting point [°C] |
| --- | --- |
| Cc1ccc(-c2ccc(C(F)(F)F)cc2)c(C(=O)Nc2ccc(N3CCN(Cc4cccc(C#N)c4)CC3)cc2)c1 [Example 18, 4-Methyl4′-trifluoromethyl-biphenyl-2-carboxylic acid [4-[4-(3-cyano-benzyl)-piperazin-1-yl]-phenyl]-amide] | 120 to 124 |
| COc1cccc(C(=O)Nc2ccc(N3CCN(Cc4cccc(C#N)c4)CC3)cc2)c1-c1ccc(C(F)(F)F)cc1 [Example 8, 6-Methoxy-4′-trifluoromethyl-biphenyl-2-carboxylic acid [4-[4-(3-cyano-benzyl)-piperazin-1-yl]-phenyl]-amide] | 215 to 217 |
| N#Cc1cccc(CN2CCN(c3ccc(NC(=O)c4ccccc4-c4cccc(C(F)(F)F)c4)cc3)CC2)c1 [Example 22, 3′-Trifluoromethyl-biphenyl-2-carboxylic acid [4-[4-(3-cyano-benzyl)-piperazin-1-yl]-phenyl]-amide] | 117 to 121 |
| O=C(Nc1ccc(N2CCN(CCCC(F)(F)F)CC2)cc1)c1ccccc1-c1ccc(C(F)(F)F)cc1 [Example 45, 4′-Trifluoromethyl-biphenyl-2-carboxylic acid [4-(4-(4,4,4-trifluoro-butyl)-piperazin-1-yl]-phenyl]-amide] | 198 to 200 |
| N#Cc1cccc(CN2CCN(c3ccc(NC(=O)c4ccccc4OCCC4CCCCC4)cc3)CC2)c1 [Example 32, N-[4-[4-(3-Cyano-benzyl)-piperazin-1-yl]-phenyl]-2-(2-cyclohexyl-ethoxy)-benzamide] | 119 to 121 |
| COc1cccc(C(=O)Nc2ccc(N3CCN(Cc4cccc(C#N)c4)CC3)cc2)c1OCCc1ccccc1 [Example 30, N-[4-[4-(3-Cyano-benzyl)-piperazin-1-yl]-phenyl]-3-methoxy-2-phenethyloxy-benzamide] | 140 to 142 |
| CC(C)c1ccc(-c2ccccc2C(=O)Nc2ccc(N3CCN(Cc4cccc(C#N)c4)CC3)cc2)cc1 [Example 16, 4′-Isopropyl-biphenyl-2-carboxylic acid [4-[4-(3-cyano-benzyl)-piperazin-1-yl]-phenyl]-amide] | 133 to 135 |
| N#Cc1cccc(CN2CCN(c3ccc(NC(=O)c4ccc(Cl)cc4-c4ccc(C(F)(F)F)cc4)cc3)CC2)c1 [Example 10, 5-Chloro-4′-trifluoromethyl-biphenyl-2-carboxylic acid [4-[4-(3-cyano-benzyl)-piperazin-1-yl]-phenyl]-amide] | 164 to 165 |
| N#Cc1cccc(CN2CCN(c3ccc(NC(=O)c4ccccc4Oc4ccccc4)cc3)CC2)c1 (hydrate or solvate) [Example 14, N-[4-[4-(3-Cyano-benzyl)-piperazin-1-yl]-phenyl]-2-phenoxy-benzamide] | 133 to 134 |
| O=C(Nc1ccc(N2CCN(Cc3ccncc3)CC2)cc1)c1ccccc1-c1ccc(C(F)(F)F)cc1 | 194 to 196 |
| COc1cccc(C(=O)Nc2ccc(N3CCN(Cc4cccc(C#N)c4)CC3)cc2)c1OCCC1CCCCC1 [Example 31, N-[4-[4-(3-Cyano-benzyl)-piperazin-1-yl]-phenyl]-2-(2-cyclohexyl-ethoxy)-3-methoxy-benzamide] | 102 to 104 |
| N#CCN1CCN(c2ccc(NC(=O)c3ccccc3-c3ccc(C(F)(F)F)cc3)cc2)CC1 [Example 41, 4′-Trifluoromethyl-biphenyl-2-carboxylic acid [4-(4-cyanomethyl-piperazin-1-yl]-phenyl]-amide] | 244 to 246 |
| COc1ccc(-c2ccc(C(F)(F)F)cc2)c(C(=O)Nc2ccc(N3CCN(Cc4cccc(C#N)c4)CC3)cc2)c1 [Example 19, 4-Methoxy-4′-trifluoromethyl-biphenyl-2-carboxylic acid [4-[4-(3-cyano-benzyl)-piperazin-1-yl]-phenyl]-amide] | 151 to 155 |
| CCc1ccc(-c2ccccc2C(=O)Nc2ccc(N3CCN(Cc4cccc(C#N)c4)CC3)cc2)cc1 [Example 20, 4′-Ethyl-biphenyl-2-carboxylic acid [4-[4-(3-cyano-benzyl)-piperazin-1-yl]-phenyl]-amide] | 118 to 122 |
| COc1cccc(C(=O)Nc2ccc(N3CCN(Cc4cccc(C#N)c4)CC3)cc2)c1OCc1ccc(F)cc1 [Example 29, N-[4-[4-(3-Cyano-benzyl)-piperazin-1-yl]-phenyl]-2-(4-fluoro-benzyloxy)-3-methoxy-benzamide] | 118 to 120 |
| Cc1ccc(C(=O)Nc2ccc(N3CCN(Cc4cccc(C#N)c4)CC3)cc2)c(-c2ccc(C(F)(F)F)cc2)c1 [Example 9, 5-Methyl-4′-trifluoromethyl-biphenyl-2-carboxylic acid [4-[4-(3-cyano-benzyl)-piperazin-1-yl]-phenyl]-amide] | 166 to 168 |
| CCOCCN1CCN(c2ccc(NC(=O)c3ccccc3-c3ccc(C(F)(F)F)cc3)cc2)CC1 [Example 43, 4′-Trifluoromethyl-biphenyl-2-carboxylic acid [4-(4-(2-ethoxy-ethyl)-piperazin-1-yl]-phenyl]-amide] | 176 to 178 |
| N#Cc1cccc(CN2CCN(c3ccc(NC(=O)c4ccccc4-c4ccc(F)cc4)cc3)CC2)c1 [Example 23, 4′-Fluoro-biphenyl-2-carboxylic acid [4-[4-(3-cyano-benzyl)-piperazin-1-yl]-phenyl]-amide] | 200 to 202 |
| Cc1ccc(-c2ccccc2C(=O)Nc2ccc(N3CCN(Cc4cccc(C#N)c4)CC3)cc2)cc1C | 140 to 144 |
| COc1ccc(C(=O)Nc2ccc(N3CCN(Cc4cccc(C#N)c4)CC3)cc2)c(-c2ccc(C(F)(F)F)cc2)c1 [Example 17, 5-Methoxy-4′-trifluoromethyl-biphenyl-2-carboxylic acid [4-[4-(3-cyano-benzyl)-piperazin-1-yl]-phenyl]-amide] | 160 to 164 |
| Cc1cccc(C(=O)Nc2ccc(N3CCN(CC(N)=O)CC3)cc2)c1-c1ccc(C(F)(F)F)cc1 [Example 40, 6-Methyl4′-trifluoromethyl-biphenyl-2-carboxylic acid [4-(4-carbamoylmethyl-piperazin-1-yl)-phenyl]-amide] | 196 to 198 |
| COc1ccc(-c2ccccc2C(=O)Nc2ccc(N3CCN(Cc4cccc(C#N)c4)CC3)cc2)cc1OC [Example 26, 3′,4′-Dimethoxy-biphenyl-2-carboxylic acid [4-[4-(3-cyano-benzyl)-piperazin-1-yl]-phenyl]-amide] | 116 to 120 |

Results, then the compound that gave them:

| melting point [°C] | SMILES |
| --- | --- |
| 174 | N#Cc1cccc(CN2CCN(c3ccc(NC(=O)c4ccccc4-n4cccc4)cc3)CC2)c1 [Example 85, N-{4-[4-(3-Cyano-benzyl)-piperazin-1-yl]-phenyl}-2-pyrrol-1-yl-benzamide] |
| 189 to 190.5 | O=C(Nc1ccc(N2CCN(Cc3cccc(F)c3)CC2)cc1)c1ccccc1-c1ccc(C(F)(F)F)cc1 (hydrate or solvate) [Example 53, 4′-Trifluoromethyl-biphenyl-2-carboxylic acid [4-[4-(3-fluoro-benzyl)-piperazin-1-yl]-phenyl]-amide] |
| 118 to 120 | Cn1ccnc1CN1CCN(c2ccc(NC(=O)c3ccccc3-c3ccc(C(F)(F)F)cc3)cc2)CC1 [Example 60, 4′-Trifluoromethyl-biphenyl-2-carboxylic acid [4-[4-(1-methyl-1H-imidazol-2-ylmethyl)-piperazin-1-yl)-phenyl]-amide] |
| 181 to 183 | O=C(Nc1ccc(N2CCN(Cc3cccs3)CC2)cc1)c1ccccc1-c1ccc(C(F)(F)F)cc1 [Example 70, 4′-Trifluoromethyl-biphenyl-2-carboxylic acid [4-(4-thiophen-2-ylmethyl-piperazin-1-yl)-phenyl]-amide] |
| 188 to 190 | O=C(Nc1ccc(N2CCN(Cc3cccc(-c4noc(C(F)(F)F)n4)c3)CC2)cc1)c1ccccc1-c1ccc(C(F)(F)F)cc1 [Example 75, 4′-Trifluoromethyl-biphenyl-2-carboxylic acid (4-{4-[3-(5-trifluoromethyl-[1,2,4]oxadiazol-3-yl)-benzyl]-piperazin-1-yl}-phenyl)-amide] |
| 180 to 182 | COc1cccc(C(=O)Nc2ccc(N3CCN(Cc4cccc(-c5nc(C)no5)c4)CC3)cc2)c1-c1ccc(C(C)C)cc1 [Example 74, 4′-Isopropyl-6-methoxy-biphenyl-2-carboxylic acid (4-(4-(3-(3-methyl-[1,2,4]oxadiazol-5-yl)-benzyl)-piperazine-1-yl)-phenyl)-amide] |
| 173 to 175 | O=C(Nc1ccc(N2CCN(Cc3ccco3)CC2)cc1)c1ccccc1-c1ccc(C(F)(F)F)cc1 [Example 67, 4′-Trifluoromethyl-biphenyl-2-carboxylic acid [4-(4-furan-2-ylmethyl-piperazin-1-yl)-phenyl]-amide] |
| 203 to 205 | CC(C)=CCN1CCN(c2ccc(NC(=O)c3ccccc3-c3ccc(C(F)(F)F)cc3)cc2)CC1 [Example 46, 4′-Trifluoromethyl-biphenyl-2-carboxylic acid [4-(4-(3-methyl-but-2-enyl)-piperazin-1-yl]-phenyl]-amide] |
| 190 to 192 | COC(=O)c1cccc(CN2CCN(c3ccc(NC(=O)c4ccccc4-c4ccc(C(F)(F)F)cc4)cc3)CC2)c1 [Example 55, 4′-Trifluoromethyl-biphenyl-2-carboxylic acid [4-[4-(3-carbomethoxy-benzyl)-piperazin-1-yl]-phenyl]-amide] |
| 168 to 170 | O=C(Nc1ccc(N2CCN(Cc3ccccn3)CC2)cc1)c1ccccc1-c1ccc(C(F)(F)F)cc1 (hydrate or solvate) [Example 57, 4′-Trifluoromethyl-biphenyl-2-carboxylic acid [4-(4-pyridin-2-ylmethyl-piperazin-1-yl)-phenyl]-amide] |
| 199 to 201 | NC(=O)c1cccc(CN2CCN(c3ccc(NC(=O)c4ccccc4-c4ccc(C(F)(F)F)cc4)cc3)CC2)c1 [Example 50, 4′-Trifluoromethyl-biphenyl-2-carboxylic acid {4-[4-(3-carbamoyl-benzyl)-piperazin-1-yl]-phenyl}-amide] |
| 207 to 209 | CCCN1CCN(c2ccc(NC(=O)c3ccccc3-c3ccc(C(F)(F)F)cc3)cc2)CC1 [Example 65, 4′-Trifluoromethyl-biphenyl-2-carboxylic acid [4-(4-propyl-piperazin-1-yl)-phenyl]-amide] |
